Patent US6355630B1, “Estra-1,3,5(10)-triene-7α-thioethers” (priority 1997, dated 2002)
Counter-ions that a name gives are not always drawn.

Assays:
rat uterus = test: Rat uterotrophic/antiuterotrophic test procedure; format: in vivo; conditions: daily ip, 4-day immature rat
Procedure: Rat Uterotrophic/Antiuterotrophic Test Procedure
The estrogenic and antiestrogenic properties of the compounds were determined in a 4-day immature rat uterotrophic assay (as described previously by L. J. Black and R. L. Goode, Life Sciences, 26, 1453 (1980)). Immature Sprague-Dawley rats (female, 18 days old) were tested in groups of six. […] On day 4 the animals were sacrificed by CO2 asphyxiation and their uteri were removed and stripped of excess lipid, any fluid removed and the wet weight determined. A small section of one horn was submitted for histology and the remainder used to isolate total RNA in order to evaluate complement component 3 gene expression.
Representative compounds of this invention were evaluated in the rat uterotrophic/antiuterotrophic assay to determine their in vivo effects on the rat uterus.

Ishikawa uterine cells = test: Ishikawa cell alkaline phosphatase test procedure; format: cell-based, human; conditions: for Alkaline phosphatase activity, percent of response related to 1 nM 17β-estradiol: 48 h
Procedure: Ishikawa Cell Alkaline Phosphatase Test Procedure
Cell Maintenance and Treatment
Ishikawa cells were maintained in DMEM/F12 (50%:50%) containing phenol red+10% fetal bovine serum and the medium was supplemented with 2 mM Glutamax, 1% Pen/Strap and 1 mM sodium pyruvate. Five days prior to the beginning of each evaluation (treatment of cells) the medium was changed to phenol red-free DMEM/F12+10% dextran coated charcoal stripped serum. On the day before treatment, cells were harvested using 0.5% trypsin/EDTA and plated at a density of 5×10^4 cells/well in 96-well tissue culture plates. […] Cells were treated for 48 h prior to assay. […] Sample population for at each dose was n=8.
Alkaline Phosphatase Test Procedure
At the end of 48 h the media was aspirated and cells were washed three times with phosphate buffered saline (PBS); 50 μL of lysis buffer (0.1 M Tris-HCl, pH 9.8, 0.2% Triton X-100) was added to each well. Plates were placed at −80° C. for a minimum of 15 minutes. Plates were thawed at 37° C. followed by the addition of 150 μL of 0.1 M Tris-HCl, pH 9.8, containing 4 mM para-nitrophenylphosphate (pNPP) to each well (final concentration, 3 mM pNPP).
Absorbance and slope calculations were made using the KineticCalc Application program (Bio-Tek Instruments, Inc., Winooski, Vt.). Results are expressed as the mean +/−S.D. of the rate of enzyme reaction (slope) averaged over the linear portion of the kinetic reaction curve (optical density readings every 5 minutes for 30 minutes absorbance reading).
The four compounds were used as reference standards:
A description of these methods is described by Holinka, C. F., Hata, H., Kuramoto, H. and Gurpide, E. (1986) Effects of steroid hormones and antisteroids on alkaline phosphatase activity in human endometrial cancer cells (Ishikawa Line). Cancer Research, 46:2771-2774, and by Littlefield, B. A., Gurpide, E., Markiewicz, L., McKinley, B. and Hochberg, R. B. (1990) A simple and sensitive microtiter plate estrogen bioassay based on stimulation alkaline phosphatase in Ishikawa cells; Estrogen action of D5 adrenal steroids. Endocrinology, 6:2757-2762.

human estrogen receptor = biological target: T1, human estrogen receptor (Homo sapiens, UniProt P03372); test: In vitro estrogen receptor binding test procedure ([3H]-17β-estradiol competition); conditions: for IC50: read-out: Receptor IC50
T1 construct: expressed in transfected cells; host or cells: Chinese Hamster ovary (CHO) cells; ribosome-free cytosol
T1 sequence (P03372 1-595): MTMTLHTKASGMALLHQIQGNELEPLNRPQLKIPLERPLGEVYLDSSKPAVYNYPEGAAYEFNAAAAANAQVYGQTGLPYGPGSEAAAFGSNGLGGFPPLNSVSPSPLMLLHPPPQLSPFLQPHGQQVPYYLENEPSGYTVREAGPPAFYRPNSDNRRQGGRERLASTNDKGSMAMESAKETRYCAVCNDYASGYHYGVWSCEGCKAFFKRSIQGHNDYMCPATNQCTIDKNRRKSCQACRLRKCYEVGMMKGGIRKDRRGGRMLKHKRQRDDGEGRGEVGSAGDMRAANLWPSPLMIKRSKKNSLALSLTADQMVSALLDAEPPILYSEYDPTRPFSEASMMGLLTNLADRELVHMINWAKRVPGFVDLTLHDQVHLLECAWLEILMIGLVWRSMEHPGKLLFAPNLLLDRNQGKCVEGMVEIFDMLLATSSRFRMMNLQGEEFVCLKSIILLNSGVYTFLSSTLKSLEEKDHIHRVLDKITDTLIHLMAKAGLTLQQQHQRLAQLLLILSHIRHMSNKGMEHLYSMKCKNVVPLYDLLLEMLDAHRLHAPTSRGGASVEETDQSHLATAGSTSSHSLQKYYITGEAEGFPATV
Procedure: In vitro Estrogen Receptor Binding Test Procedure
Chinese Hamster ovary (CHO) cells overexpressing the estrogen receptor were grown in […] dishes in DMEM+10% dextran coated charcoal, stripped fetal bovine serum. The plates were washed twice with PBS and once with 10 mM Tris-HCl, pH 7.4, 1 mM EDTA. Cells were harvested by scraping the surface and then the cell suspension was placed on ice. Cells were disrupted with a hand-held motorized tissue grinder using two, 10-second bursts. The crude preparation was centrifuged at 12,000 g for 20 minutes followed by a 60 minute spin at 100,000 G to produce a ribosome free cytosol. The cytosol was then frozen and stored at −80° C. Protein concentration of the cytosol was estimated using the BCA assay with reference standard protein.
Binding Test Procedure Conditions
100 uG/100 uL of the receptor preparation was aliquoted per well. […] The plate was incubated at room temperature for 2.5 h. At the end of this incubation period 150 uL of ice-cold dextran coated charcoal (5% activated charcoal coated with 0.05% 69K dextran) was added to each well and the plate was immediately centrifuged at 99 g for 5 minutes at 4° C. 200 uL of the supernatant solution was then removed for scintillation counting. Samples were counted to 2% or 10 minutes, whichever occurs first. […] Also, wells containing radioactivity but no cytosol were processed with charcoal to estimate unremovable DPM of [^3H] […] 96-well plates were used because they have proven to bind the least amount of estradiol.
Counts per minute (CPM) of radioactivity were automatically converted to disintegrated per minute (DPM) by the Beckman LS 7500 Scintillation Counter using a set of quenched standards to generate a H# for each sample. To calculate the % of estradiol binding in the presence of 100 or 500 fold competitor the following formula was applied:
((DPM sample−DPM not removed by charcoal/(DPM estradiol−DPM not removed by charcoal))×100%=% of estradiol binding
For the generation of IC50 curves, % binding is plotted vs compound. […] Values are reported as IC50 values. […] For a description of these methods, see Hulme, E. C., ed. 1992. Receptor-Ligand Interactions: A Practical Approach. IRL Press, New York.(see especially chapter 8).
Compounds were tested for their ability to displace estradiol in a human ER-receptor preparation as described above.

[1] = 1 uM compound + 1 nM E2, antagonist mode

SMILES | Uterine wet weight (rat uterus; 1 ug Cpd) | Uterine wet weight (rat uterus; 100 ug Cpd) | Alkaline phosphatase activity, percent of response related to 1 nM 17β-estradiol (Ishikawa uterine cells; 0.01 uM compound, agonist mode) | Alkaline phosphatase activity, percent of response related to 1 nM 17β-estradiol (Ishikawa uterine cells; 0.1 uM compound, agonist mode) | Alkaline phosphatase activity, percent of response related to 1 nM 17β-estradiol (Ishikawa uterine cells; [1]) | Alkaline phosphatase activity, percent of response related to 1 nM 17β-estradiol (Ishikawa uterine cells; 1 uM compound, agonist mode) | IC50 (human estrogen receptor) | Uterine wet weight (rat uterus; 1 ug E2 + 100 ug Cpd) | Behaviour in the uterine cell line (agonist/antagonist) (Ishikawa uterine cells; in words, from Table 2) | Receptor IC50 (human estrogen receptor; displacement of [3H]17β-estradiol, CHO cell cytosol ER preparation) | Competition for the human estrogen receptor (human estrogen receptor; in words, compounds with 17β-acetate)
C[C@]12CC[C@@H]3c4ccc(O)cc4C(=O)[C@@H](Sc4ccc(O)cc4)[C@H]3[C@@H]1CC[C@@H]2O [Example 2, (7α,17β) 3,17-Dihydroxy-7-(4-hydroxyphenyl)thio-estra-1,3,5(10)-triene-6-one] | 39.4 mg | 83.1 mg | 7% | 14% | 87% | 42% | 2500 nM | – | – | – | –
C[C@]12CC[C@@H]3c4ccc(O)cc4[C@@H](O)[C@@H](Sc4ccc(O)cc4)[C@H]3[C@@H]1CC[C@@H]2O [Example 3, (6α,7α,17β) 7-(4-Hydroxyphenyl)thio-estra-1,3,5(10)-triene-3,6,17-triol] | 62.4 mg | 99.9 mg | 86% | 88% | 97% | 75% | 10 nM | 106.1 mg | – | – | –
C[C@]12CC[C@@H]3c4ccc(O)cc4C[C@@H](Sc4ccc(O)cc4)[C@H]3[C@@H]1CC[C@@H]2O [Example 4, (7α,17β) 7-(4-Hydroxyphenyl)thio-estra-1,3,5(10)-triene-3,17-diol] | 37.9 mg | 45.4 mg | 7% | 47% | 6% | 57% | 300 nM | – | – | – | –
C[C@]12CC[C@@H]3c4ccc(O)cc4C(=O)[C@@H](Sc4ccc(Br)cc4)[C@H]3[C@@H]1CC[C@@H]2O [Example 6, (7α,17β) 7-(4-Bromophenyl)thio-3,17-dihydroxy-estra-1,3,5(10)-trien-6-one] | 29.0 mg | 97.7 mg | 31% | 100% | 109% | 104% | 1500 nM | – | fully efficacious agonists | – | –
C[C@]12CC[C@@H]3c4ccc(O)cc4C[C@@H](Sc4ccc(Br)cc4)[C@H]3[C@@H]1CC[C@@H]2O [Example 8, (7α,17β) 7-(4-Bromophenyl)thio-estra-1,3,5(10)-triene-3,17-diol] | 35.8 mg | 64.7 mg | 29% | 59% | 95% | 92% | 800 nM | – | – | – | –
CC12CCC3c4ccc(O)cc4CC(Sc4ccc(-c5ccc(C=CC(=O)O)cc5)cc4)C3C1CCC2O (stereo not drawn) [Example 13, (7α,17β) 7-{4-[4′-(2-Carboxy)-ethenyl]biphenyl}thio-estra-1,3,5(10)-triene-3,17-diol sodium salt] | 48.0 mg | 55.8 mg | 11% | 72% | 101% | 95% | 400 nM | – | – | – | –
COc1ccc2c(c1)CC(Sc1ccc(OCCN3CCCCC3)cc1)C1C2CCC2(C)C(OC(C)=O)CCC12 (stereo not drawn) [Example 14, (7α,17β) 3-Methoxy-7-{4-[2-(piperdin-1-yl)]ethoxyphenyl}thio-estra-1,3,5(10)-triene-17-ol-17-acetate] | – | – | 2% | 3% | 105% | 39% | – | – | – | No Binding | competed less effectively
